Measured values: PubChem BioAssay AID588612 (The Scripps Research Institute Molecular Screening Center, 2011)

Target: Mitogen-activated protein kinase 1 (Homo sapiens) (UniProt P28482)
Assay: p-MAPK1 abundance shift in treated cells – DLD1 cells, chemiluminescent western blot, powder samples, counter-screen for KLF5 inhibitor project, late-stage follow-up (AID 588612)
Conditions: DLD-1 cells, p-ERK1/2 western blot, 24 h; at 10 µM

Mitogen-activated protein kinase 1 (Homo sapiens), sequence (P28482 whole entry, looked up): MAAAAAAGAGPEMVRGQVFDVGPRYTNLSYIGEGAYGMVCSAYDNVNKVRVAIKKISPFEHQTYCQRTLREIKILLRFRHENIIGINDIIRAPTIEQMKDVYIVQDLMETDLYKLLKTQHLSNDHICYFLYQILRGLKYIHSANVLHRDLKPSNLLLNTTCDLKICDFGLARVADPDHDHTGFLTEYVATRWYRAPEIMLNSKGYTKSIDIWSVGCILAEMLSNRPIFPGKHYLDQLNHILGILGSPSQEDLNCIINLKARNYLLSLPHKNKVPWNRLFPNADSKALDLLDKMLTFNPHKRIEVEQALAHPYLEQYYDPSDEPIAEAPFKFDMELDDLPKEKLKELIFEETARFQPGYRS

fold change	Compound
9.88	CN(C(=O)CNC(=O)/C=C/c1cccc(Cl)c1)C1CCS(=O)(=O)C1 (stereo not drawn)
9.41	CN(C(=O)CNC(=O)/C=C/c1cccc(Cl)c1)C1CCS(=O)(=O)CC1
11	CN(C(=O)COC(=O)/C=C/c1cccc([N+](=O)[O-])c1)C1CCS(=O)(=O)C1 (stereo not drawn)
